“Also recorded” adds a separate entry of the source. Where two headings read alike, the source gives them in different places.
Key:
[1] = test system: Pa-LPS-induced lung injury; type: in vivo, mice
[2] = test system: chronic-CS induced lung inflammation and emphysema; assay: Chronic cigarette smoke (24 weeks) induced lung inflammation and emphysema in C57BL/6 mice; type: in vivo
Source text: Scale: white/black bar-50 μm.

neutral SMase = settings: at 5 mM GSH; cited from earlier work
NFκB promoter = assay: NFκB luciferase reporter assay in CFBE41o-wt-CFTR and CFBE41o- cells; type: cell-based, human; settings: CFBE41o-wt-CFTR cells; 10 ng/ml TNFα, 50 μM FB1, 12 hours; p<0.05; only in the presence of cell surface CFTR
Source text: The BALF and cell culture supernatants (n=3-5) were quantified in triplicate for mouse IL-6, IL-1β, or human IL-8 using ELISA kits (R&D Systems, or eBioscience, San Diego, Calif.) following the manufacturer's instructions. MPO levels in neutrophil culture supernatant or mouse BALF were similarly quantified using the MPO ELISA kit (Hycult Biotechnology, Uden, The Netherlands). For reporter assays, CFBE41o-WT-CFTR or CFBE41o-cells were transfected with NF-KB firefly luciferase promoter (pGL2) and renilla luciferase (pRLTK) control using Lipofectamine 2000 (Invitrogen). Renilla luciferase was used as an internal control for normalization of DNA and transfection efficiency of reporter constructs. […] Data were normalized with internal renilla luciferase control for each sample, and the changes in reporter activities with CFTR overexpression were calculated.

ZO-2 = assay: Lipid-raft ZO-2 expression by Western blotting in CFBE41o- and CFBE41o-WT-CFTR cells; type: cell-based, human
membrane ceramide = assay: ZO-1/ceramide co-immunostaining and confocal imaging of CFBE41o-WT-CFTR cells; type: cell-based, human; settings: 6 hrs
lipid-raft CFTR = assay: Intratracheal CD treatment of Cftr+/+ mice, lung immunofluorescence staining; type: in vivo, C57BL/6 mice; settings: CD 75 μg/mouse i.t. for 3 days
Procedure: All animal experiments were carried out in accordance with the Johns Hopkins University (JHU) Animal Care and Use Committee (ACUC) approved protocols. Age-, weight-, and sex-matched (24 wk old), B6-12956-Cftr^−/− (Cftrtm^1Kthc-TgN(^FABPCFTR)) (30, 31) and Cftr^+/+ inbred mice strains (procured from Case Western Reserve University Animal Resource Center, Cleveland, Ohio; n=3-5 for all experiments). The changes in cytokine and inflammatory markers between Cftr^+/+and Cftr^−/− mice were verified by multiple (2, 3) experiments, and representative data are shown. All mice were housed in a controlled environment and pathogen-free conditions. […] Mice were sacrificed 24 h after drug treatment, and the bronchoalveolar lavage fluid (BALF) was collected for cytokine ELISAs. The lungs were fixed in 10% buffered formalin phosphate (Fisher Scientific, Pittsburgh, Pa.), paraffin embedded, and cut into longitudinal sections (5 μm thick) on glass slides for immunostaining. For depletion of membrane-CFTR in murine lungs, 72-h i.t. CD treatment was used, and lung tissues were collected as above. The mice (three to four mice per group, 8 to 10 wk old) were exposed to cigarette smoke (CS) using the TE-2 cigarette smoking machine (Teague Enterprises, Davis, Calif.). […] An average total particulate matter of 150 mg/m^3 was recorded in real time during the smoking protocols. […] The human lung tissue samples from Gold stage I (mild, forced expiratory volume [FEV1]% predicted>80%), Gold stage 11 (moderate, FEV1% predicted=˜50-80%), and Gold stage III-IV (severe/very severe, FEV1% predicted <50%) nontumor COPD (with FEV1/forced vital capacity [FVC] ratio of <70%) and Gold stage 0 (at risk) control subjects (procured from Lung Tissue Research Consortium [Bethesda, Md.], National Heart, Lung and Blood Institute, National Institutes of Health) were used for quantification and localization of indicated proteins by immunostaining All the subjects were stable, and Gold I-IV subjects had emphysema. […]

IL-8 = IL-8 secretion ELISA in CFBE41o-WT-CFTR cells; type: cell-based, human; settings: 5 mM CD, 24 hours; p<0.001
NFκB = NFκB immunostaining of CFBE41o-WT-CFTR cells after lipid-raft CFTR depletion; type: cell-based, human; settings: 5 mM CD, 6 hrs, ± 10 ng/ml Pa-LPS
lipid-raft Fas and CFTR = assay: Immunoblotting of lung lipid-raft protein fraction from CD treated and/or sub-chronic CS exposed Cftr+/+ mice; type: in vivo; settings: CD i.t. 2×50 μg
[3] = Cftr+/+ mice, Pa-LPS i.t. 12 h, then drug i.t. 24 h
[4] = Cftr-/- mice, Pa-LPS i.t. 12 h, then drug i.t. 24 h

## CN(C)CCC=C1c2ccccc2CCc2ccccc21 [AMT, Amitriptyline]
[1]; Cftr+/+ mice, FIG. 4B legend
  protection against Pa-LPS-induced lung injury: relatively less protective
[1]; [3]
  Pa-LPS-induced IL-1b secretion (BALF): unable to rescue
  Pa-LPS-induced IL-6 (BALF): unable to rescue
[1]; Cftr-/- mice, FIG. 4B legend
  inflammatory cytokines (BALF): effectively controls
[1]; [4]
  Pa-LPS-induced IL-1b levels (BALF): significant decrease
  Pa-LPS-induced IL-6 (BALF): significant decrease

## CCCCCCCCCC(=O)N[C@H](CN1CCOCC1)[C@H](O)c1ccccc1 [D-PDMP]
[2]; chronic-CS 24 weeks, 50 μg/mouse
  CS induced inflammation and emphysema (H&E): significant decrease
[2]; chronic-CS 24 weeks, 50 μg/mouse, p<0.05
  chronic-CS induced LacCer-accumulation (lung immunostaining): significantly downregulated
[2]; chronic-CS 24 weeks, p=0.0016
  alveolar space enlargement (alveolar diameter, morphometric analysis): significantly controlled
[2]; chronic-CS exposed mice, n=3, p=0.009
  BALF IL-6 levels: rescued to basal levels
[2]; flow cytometry, p<0.01
  chronic-CS induced macrophage (F4/80-positive cells) infiltration in BALF: significantly controls

## N[C@@H](CCC(=O)N[C@@H](CS)C(=O)NCC(=O)O)C(=O)O [Glutathione]
Neutral SMase
  inhibition of neutral SMase: greater than 95%

## Fumonisin B1 [FB1]
NFκB promoter
  TNFα mediated NFκB promoter activity: inhibits
[1]; Cftr+/+ mice, FIG. 4A
  Pa-LPS-induced IL-10 (BALF): significantly decreases
[1]; [3]
  Pa-LPS-induced IL-1b secretion (BALF): very significant decrease
  Pa-LPS-induced IL-6 (BALF): significantly decreases
[1]; Cftr+/+ mice, Pa-LPS i.t. 12 h, then drug i.t. 24 h, p<0.05
  reduction in the Pa-LPS-induced IL-6 levels (BALF): 2 fold
[1]; [4]
  Pa-LPS-induced IL-1b levels (BALF): unaltered
  Pa-LPS-induced IL-6 (BALF): decreased; also recorded: modest effect
ZO-2; CFBE41o- cells (no functional CFTR), Pa-LPS 10 ng/ml or FB1 50 μM, 24 h
  lipid-raft ZO-2 expression: neither Pa-LPS nor FB1 is able to modulate
ZO-2; in the presence of WT-CFTR (CFBE41o-WT-CFTR cells)
  lipid-raft ZO-2 expression: downregulated

## TNFα
Membrane ceramide; TNFα 10 ng/ml with CD 5 mM
  CD induced membrane ceramide accumulation: depletes

## methyl-β-cyclodextrin [CD]
lipid-raft CFTR
  NFκB activity (lung immunofluorescence): induces
  expression of lipid-raft marker (ZO-2): significant increase
  neutrophil chemotaxis (NIMPR14): induces
IL-8
  IL-8 chemokine levels: significantly induces
Membrane ceramide; CD 5 mM
  ceramide accumulation on the cell surface and lipid rafts: increases
NFκB
  CFTR control of NFκB signaling: abrogates its control of NFκB signaling
lipid-raft Fas and CFTR
  lipid-raft CFTR levels: decrease
  lipid-raft Fas expression: increases

Reference: patent publication US20130131146A1, “Compositions and Methods for Treating Pulmonary Conditions” (THE JOHNS HOPKINS UNIVERSITY, priority 2010, published 2013)
